# Data reported in patent US11584766B2, “Nicotinamide phosphoribosyltransferase inhibitors and methods for use of the same” (THE TRUSTEES OF INDIANA UNIVERSITY, priority 2018, dated 2023).
# “Also recorded” adds a separate entry of the source.
# How the values were obtained:
# NAMPT = target: T1, NAMPT (Homo sapiens, UniProt P43490); assay: CycLex NAMPT Colorimetric Assay; type: biochemical; conditions: for IC50: CycLex NAMPT Colorimetric Assay Kit, read-out: NAMPT Inhibition IC50
# T1 construct: purchased MBL International Corporation (CycLex NAMPT Colorimetric Assay Kit Ver.2)
# Procedure: The ability of the compounds of the disclosure to inhibit NAMPT was determined using the CycLex NAMPT Colorimetric Assay Kit Ver.2 by MBL International Corporation.
# The assay detects NAMPT activity in recombinant NAMPT or endogenous NAMPT immunoprecipiated from cell lysates according to the scheme shown in FIG. 3. In this method, NAMPT converts nicotinamide to nicotinamide mononucleotide (“NMN”). Subsequently, nicotinamide mononucleotide adenylyltransferase 1 (“NMNAT1”) converts NMN to NAD^+. Resultant NAD^+ can be measured by enzyme cycling reaction using alcohol dehydrogenase (“ADH”), diaphorase and WST-1.
# [1] = system: human pulmonary artery endothelial cells (hPAECs); assay: CyQUANT Direct Assay (proliferation), hPAEC; type: cell-based; conditions: for effect on HPAEC proliferation (CYQuant Direct assay): dose response, FIG. 5; for IC50: hPAEC, 24 h treatment
# Procedure: (§1) The effect of the compounds disclosed herein on the viability, proliferation, and apoptosis of human pulmonary artery endothelial cells (“hPAECs,”) and human pulmonary artery smooth muscle cells (“hPASMCs”) was determined using the PrestoBlue Assay (viability), CYQuant Direct or BrdU Assay (proliferation) or Tunel Assay (apoptosis), as described below.
# (§2) HPAECs (1×10^4 cells/well) or HPASMCs (2.5×10^3 cells/well) were seeded in 96-well plates for 24 h in full-serum tissue culture medium. The full medium was removed prior to treatment with a NAMPT inhibitor prepared in medium containing 0.1% serum. NAMPT inhibitors were solubilized in 100% DMSO, unless otherwise indicated, prior to preparation of the dose response curve in 100% DMSO. The treatment dose response curve was diluted in 0.1% serum tissue culture medium and administered to cells for 24 h. DMSO diluted in the same medium was used as the vehicle control. Cell viability was measured according to the manufacturer's protocol by adding the PrestoBlue Cell Viability Reagent (ThermoFisher Scientific, #A13261) to cells for 20 min at 37° C. in a tissue culture incubator, followed by reading fluorescence at ex560/em590. Cell proliferation was measured, either in the same wells or in separate experiments, by adding the CyQuant Direct Confirmation Reagent (ThermoFisher Scientific, #C35011) for 1 h at 37° C. in a tissue culture incubator, followed by reading fluorescence at ex485/em538. Proliferation was also measured, in separate experiments, using the BrdU Cell Proliferation Assay (Calbiochem, #QIA58). After treatment with a NAMPT inhibitor for 24 h, BrdU was added to the cells in the presence of the inhibitor, for an additional 24 h and BrdU incorporation was detected according to the manufacturer's protocol. Apoptosis was analyzed by seeding cells (1×10^5 cells/well) in 6-well plates for 24 h in full-serum medium, followed by treatment with a NAMPT inhibitor for 24 h in full-serum medium. Tunel staining and detection was performed using the Tunel Assay Kit (Abcam, #ab66110) according to the manufacturer's protocol.
# [2] = system: human pulmonary artery endothelial cells (hPAECs); assay: BrdU Assay (proliferation), hPAEC; type: cell-based; conditions: for effect on HPAEC proliferation (BrdU assay): dose response, FIG. 6
# Procedure: as §1, §2
# [3] = system: human pulmonary artery endothelial cells (hPAECs); assay: PrestoBlue Assay (viability), hPAEC; type: cell-based; conditions: for effect on HPAEC viability: dose response, FIG. 4; for IC50: hPAEC, 24 h treatment
# Procedure: as §1, §2
# [4] = system: human pulmonary artery smooth muscle cells (hPASMCs); assay: BrdU Assay (proliferation), hPASMC; type: cell-based
# Procedure: as §1, §2
# [5] = system: human pulmonary artery smooth muscle cells (hPASMCs); assay: PrestoBlue Assay (viability), hPASMC; type: cell-based; conditions: for IC50: hPASMC, 24 h treatment; for effect on HPASMC viability: dose response, FIG. 8
# Procedure: as §1, §2
# [6] = Solubility (2.5% v/v DMSO/water); type: physicochemical
# [7] = system: human pulmonary artery smooth muscle cells (hPASMCs); assay: Tunel Assay (apoptosis), hPASMC; type: cell-based
# Procedure: as §1
# HPAECs (1×10^4 cells/well) or HPASMCs (2.5×10^3 cells/well) were seeded in 96-well plates for 24 h in full-serum tissue culture medium. The full medium was removed prior to treatment with a NAMPT inhibitor prepared in medium containing 0.1% serum. NAMPT inhibitors were solubilized in 100% DMSO, unless otherwise indicated, prior to preparation of the dose response curve in 100% DMSO. […] Cell viability was measured according to the manufacturer's protocol by adding the PrestoBlue Cell Viability Reagent (ThermoFisher Scientific, #A13261) to cells for 20 min at 37° C. in a tissue culture incubator, followed by reading fluorescence at ex560/em590. Cell proliferation was measured, either in the same wells or in separate experiments, by adding the CyQuant Direct Confirmation Reagent (ThermoFisher Scientific, #C35011) for 1 h at 37° C. in a tissue culture incubator, followed by reading fluorescence at ex485/em538. Proliferation was also measured, in separate experiments, using the BrdU Cell Proliferation Assay (Calbiochem, #QIA58). […]
# [8] = system: human pulmonary artery smooth muscle cells (hPASMCs); assay: CyQUANT Direct Assay (proliferation), hPASMC; type: cell-based; conditions: dose response, FIG. 9
# Procedure: as §1, §2
# [9] = system: human pulmonary artery endothelial cells (hPAECs); assay: Tunel Assay (apoptosis), hPAEC; type: cell-based; conditions: for IC50: hPAEC; for effect on HPAEC apoptosis: dose response, FIG. 7
# Procedure: as §1, §2
# [10] = system: monocrotaline (MCT)-induced pulmonary hypertension; assay: MCT-induced pulmonary hypertension in rats; type: in vivo, rat; conditions: 5 mg/kg every other day IP, days 22-35
# Procedure: (§3) The ability of the compounds disclosed herein to attenuate pulmonary vascular remodeling associated with pulmonary arterial hypertension was determined using monocrotaline (“MCT”)-induced pulmonary hypertension as well as Sugen-Hypoxia-induced pulmonary hypertension in rats.
# MCT 60 mg/kg IP was injected in Sprague Dawley rats. After 21 days when PH was established DGMS-RARI (5 mg/kg every other day) was injected intraperitonealy from days 22-35. At day 35 PH assessments (RVSP measurements via right heart catheterization, RVH measurement via assessment of the ratio between the weight of the right ventricle over the weight of the left ventricle+septum and pulmonary vascular remodeling assessment of H&E stained pulmonary arteries) were performed.
# [11] = Plasma concentration and biochemical parameters in MCT-induced rats; type: in vivo, rat
# Text: Moreover, significant abnormalities in biochemical parameters and electrolytes were not observed.
# [12] = system: Sugen-Hypoxia-induced pulmonary hypertension; assay: Sugen-Hypoxia-induced pulmonary hypertension in rats; type: in vivo, rat; conditions: 5 mg/kg every other day IP, days 35-49
# Procedure: as §3
# Sugen 10 mg/kg IP was injected in Sprague Dawley rats who were then exposed to 10% hypoxia for 21 days. After 21 rats were returned to normoxia for 14 days. After 35 when PH was established DGMS-RARI (5 mg/kg every other day) was injected intraperitonealy from days 35-49. At day 49 PH assessments (RVSP measurements via right heart catheterization, RVH measurement via assessment of the ratio between the weight of the right ventricle over the weight of the left ventricle+septum and assessment of right ventricular function via echocardiography) were performed.
# HepG2 cells = assay: Seahorse XF Metabolism Assay (Cell Energy Phenotype Test); type: cell-based; parameters: Baseline OCR / Stressed OCR / Baseline ECAR / Stressed ECAR: unit not given here
# Procedure: The effect of the compounds disclosed herein on metabolism was determined using the Seahorse XF Cell Energy Phenotype Test Kit by Agilent Technologies. See Agilent Seahorse XF Cell Energy Phenotype Test Kit, User Guide, Manual Part Number 103325-400, Kit Part Number 103325-100, First Edition, March 2017 Agilent Technologies, Inc. This assay measures mitochondrial respiration and glycolysis under baseline and stressed conditions to determine baseline phenotype, stressed phenotype, and metabolic potential.
# [13] = Homo sapiens, Endothelial cell, 24 h
# T1 sequence (P43490 whole entry): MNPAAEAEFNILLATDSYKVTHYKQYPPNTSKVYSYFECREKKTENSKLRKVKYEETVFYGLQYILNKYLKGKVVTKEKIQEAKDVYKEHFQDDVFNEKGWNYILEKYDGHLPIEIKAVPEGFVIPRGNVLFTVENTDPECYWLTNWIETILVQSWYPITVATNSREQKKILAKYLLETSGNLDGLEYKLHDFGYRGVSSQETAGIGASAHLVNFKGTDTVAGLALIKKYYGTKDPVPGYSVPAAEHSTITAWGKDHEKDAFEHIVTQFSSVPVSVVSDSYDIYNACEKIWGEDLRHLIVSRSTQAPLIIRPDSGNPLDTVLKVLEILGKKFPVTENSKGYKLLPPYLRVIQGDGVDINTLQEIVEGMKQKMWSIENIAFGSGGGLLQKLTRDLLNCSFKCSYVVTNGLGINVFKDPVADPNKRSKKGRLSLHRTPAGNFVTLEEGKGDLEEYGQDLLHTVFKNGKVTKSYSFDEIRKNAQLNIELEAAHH
smiles,measurement,setting,value
O=C(/C=C/c1cccnc1)NCCCCCC(=O)N1c2ccccc2CC1c1ccccc1 (stereo not shown) [DGMS-RAR-7],IC50,NAMPT,0.041 µM
same,effect on HPAEC proliferation (CYQuant Direct assay),[1],dose-dependently decrease cell proliferation
same,IC50,[1],1 µM
same,IC50,"[2]; Homo sapiens, Endothelial cell",95.8 µM
same,effect on HPAEC proliferation (BrdU assay),[2],dose-dependently decrease cell proliferation
same,effect on HPAEC viability,[3],dose-dependently decrease cell viability
same,IC50,[3],1.59 µM
same,IC50,[4],35400 µM
Cl.O=C(/C=C/c1cccnc1)NCCCCCC(=O)N1c2ccccc2CC1c1ccccc1 (stereo not shown) [DGMS-RAR-7•HCl],IC50,NAMPT,0.015 µM
same,IC50,"[5]; Homo sapiens, 24 h",31.1 µM
same,effect on HPASMC viability,[5],dose-dependently decrease cell viability
same,Solubility (2.5% v/v DMSO/water),[6],Good
same,effect on HPAEC proliferation (CYQuant Direct assay),[1]; listed as DGMS-RAR-7-HCl,dose-dependently decrease cell proliferation
same,effect on HPAEC proliferation (CYQuant Direct assay),[1]; listed as DGMS-RAR-7.HCl,reduction
same,IC50,[1],26.6 µM
same,IC50,[7]; Homo sapiens,116 µM
same,effect on HPAEC proliferation (BrdU assay),[2],dose-dependently decrease cell proliferation
same,effect on HPAEC viability,[3],dose-dependently decrease cell viability; also recorded: reduction
same,IC50,[3],13.9 µM
same,effect on HPASMC proliferation (CYQuant Direct assay),[8],dose-dependently decrease cell proliferation
same,IC50,[4],63.9 µM
same,IC50,"[9]; Homo sapiens, Endothelial cell",183 µM
same,effect on HPAEC apoptosis,[9],dose-dependently decrease apoptosis
O=C(/C=C/c1cccnc1)NCCCCCC(=O)N1c2ccccc2CC1c1ccccc1 (stereo not shown) [DGMS-RAR-7•HO3SMe],effect on HPASMC viability,[5],dose-dependently decrease cell viability
same,IC50,[5],26.6 µM
same,effect on HPAEC proliferation (CYQuant Direct assay),[1]; listed as DGMS-RAR-7-HO3SMe,dose-dependently decrease cell proliferation
same,effect on HPAEC proliferation (CYQuant Direct assay),[1]; listed as DGMS-RAR-7.HO3SMe,reduction
same,IC50,[1],31.9 µM
same,IC50,[7],94.1 µM
same,effect on HPAEC proliferation (BrdU assay),[2],dose-dependently decrease cell proliferation
same,effect on HPAEC viability,[3],dose-dependently decrease cell viability; also recorded: reduction
same,IC50,[3],17.1 µM
same,effect on HPASMC proliferation (CYQuant Direct assay),[8],dose-dependently decrease cell proliferation
same,effect on HPAEC apoptosis,[9],dose-dependently decrease apoptosis
same,IC50,[9],117 µM
O=C(/C=C/c1cccnc1)NCCCCCCn1c(-c2ccccc2)cc2ccccc21 [DGMS-RARI],inhibition at 10 µM,NAMPT,98%
same,IC50,NAMPT,0.014 µM
same,effect on HPASMC viability,[5],dose-dependently decrease cell viability
same,IC50,[1]; [13],2.88 µM
same,effect on HPAEC proliferation (CYQuant Direct assay),[1],dose-dependently decrease cell proliferation
same,degree of pulmonary vascular remodeling,[10],decreased
same,degree of right ventricular hypertrophy,[10],decreased
same,severity of elevations in RVSP,[10],decreased
same,abnormalities in biochemical parameters and electrolytes,[11]; 5 mg/kg,not observed
same,average concentration in rat plasma,"[11]; 5 mg/kg intravenously, intraperitoneally and orally",decreased with time
same,degree of right ventricular dysfunction,[12],decreased
same,degree of right ventricular hypertrophy,[12],decreased
same,severity of elevations in RVSP,[12],decreased
same,IC50,[3]; [13],117 µM
same,effect on HPAEC viability,[3],dose-dependently decrease cell viability
same,Baseline ECAR,"HepG2 cells; HepG2, 80 nM",16.16
same,Baseline OCR,"HepG2 cells; HepG2, 80 nM",98.19
same,Metabolic Potential (% Baseline ECAR),"HepG2 cells; HepG2, 80 nM",288.54 % Baseline ECAR
same,Metabolic Potential (% Baseline OCR),"HepG2 cells; HepG2, 80 nM",154.82 % Baseline OCR
same,Stressed ECAR,"HepG2 cells; HepG2, 80 nM",46.64
same,Stressed OCR,"HepG2 cells; HepG2, 80 nM",152.08
same,Baseline ECAR,"HepG2 cells; HepG2, 2 uM",12.28
same,Baseline OCR,"HepG2 cells; HepG2, 2 uM",73.92
same,Metabolic Potential (% Baseline ECAR),"HepG2 cells; HepG2, 2 uM",334.84 % Baseline ECAR
same,Metabolic Potential (% Baseline OCR),"HepG2 cells; HepG2, 2 uM",154.18 % Baseline OCR
same,Stressed ECAR,"HepG2 cells; HepG2, 2 uM",37.11
same,Stressed OCR,"HepG2 cells; HepG2, 2 uM",111.06
same,Baseline ECAR,"HepG2 cells; HepG2, 10 uM",18.28
same,Baseline OCR,"HepG2 cells; HepG2, 10 uM",60.26
same,Metabolic Potential (% Baseline ECAR),"HepG2 cells; HepG2, 10 uM",194.22 % Baseline ECAR
same,Metabolic Potential (% Baseline OCR),"HepG2 cells; HepG2, 10 uM",148.94 % Baseline OCR
same,Stressed ECAR,"HepG2 cells; HepG2, 10 uM",31.23
same,Stressed OCR,"HepG2 cells; HepG2, 10 uM",89.62
same,inhibition at 10 µM,"HepG2 cells; Homo sapiens, HepG2 cells, high doses (10 uM), read-out: inhibition of the maximal oxygen consumption rate",~30%
same,effect on cellular respiration,HepG2 cells; physiological doses (≤80 nM),no effect on cellular respiration
